{"source": "patent US20100247642A1", "about": "“STABLE PHARMACEUTICAL FORMULATION FOR A DPP-IV INHIBITOR” (Phenomix Corporation, priority 2007, published 2010)", "assay": "Excipient compatibility: stability of binary mixture of API plus excipient, purity by HPLC", "type": "physicochemical", "description": "A comparison of the stability of the API of the current invention was made, using excipients well-known in the art. […] Compound purity was determined by HPLC. The mixture of the API and the calcium phosphate was allowed to stand under the specified conditions for the stated times. Results are given as percent purity of the API at the given time point. […] Again, the mixture of the API and the microcrystalline cellulose was allowed to stand under the specified conditions for the stated times. Results are given as percent purity of the API at the given time point."}
{"smiles": "O=C(CNC1CCNC1)N1CCCC1B(O)O", "note": "(stereo not shown) [API, pyrrolidin-3-yl-glycyl-boro-proline]", "values": [{"measurement": "% API (percent purity of the API)", "setting": "binary mixture with dibasic calcium phosphate, 2 weeks/loose cap", "result": 77.0, "unit": "%"}, {"measurement": "% API (percent purity of the API)", "setting": "binary mixture with dibasic calcium phosphate, 2 weeks/tight cap", "result": 77.2, "unit": "%"}, {"measurement": "% API (percent purity of the API)", "setting": "binary mixture with dibasic calcium phosphate, 4 weeks/tight cap", "result": 71.7, "unit": "%"}, {"measurement": "drop in API purity", "setting": "binary mixture with dibasic calcium phosphate, within two weeks, regardless of exposure to atmosphere", "result": "over 10%"}, {"measurement": "% API (percent purity of the API)", "setting": "binary mixture with microcrystalline cellulose, 2 weeks/loose cap", "result": 82.1, "unit": "%"}, {"measurement": "% API (percent purity of the API)", "setting": "binary mixture with microcrystalline cellulose, 4 weeks/tight cap", "result": 90.2, "unit": "%"}, {"measurement": "storage stability of the API in the presence of calcium phosphate", "setting": "presence of calcium phosphate", "result": "massive decomposition"}]}
